Test results from ChEMBL document CHEMBL1201862, “PubChem BioAssay data set” (2004).
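Cells were grown in 96-well plates and exposed to each compound for 48 hours at five concentrations; endpoints were interpolated linearly between bracketing concentrations, or set to the highest concentration if not reached. GI50 = concentration required for 50% inhibition of growth.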 Calls of active or inactive are those of the source. No stated cut-off is given here; in the data, active = GI50 up to about 1.1 µM and inactive = higher.

Experiments:
Experiment in all cases: inhibition of tumour cell growth, NCI panel, 48 h
BT-549 = test system: BT-549
CCRF-CEM = test system: CCRF-CEM
COLO 205 = test system: COLO 205
HCC 2998 = test system: HCC 2998
HL-60 = test system: HL-60
HOP-62 = test system: HOP-62
HT-29 = test system: HT-29
K562 = test system: K562
KM12 = test system: KM12
LOX IMVI = test system: LOX IMVI
MCF7 = test system: MCF7
NCI-H23 = test system: NCI-H23
NCI-H460 = test system: NCI-H460
OVCAR-5 = test system: OVCAR-5
OVCAR-8 = test system: OVCAR-8
SK-OV-3 = test system: SK-OV-3
SN12C = test system: SN12C
SR = test system: SR
OVCAR-3 = test system: OVCAR-3

Measured: GI50

CC12CCC(=O)[C@@]1(C)CCCC2=O (stereo partly drawn)
inactive: BT-549 > 100 µM | CCRF-CEM > 100 µM | COLO 205 > 100 µM | HCC 2998 > 100 µM | HL-60 > 100 µM | HOP-62 > 100 µM | HT-29 > 100 µM | K562 > 100 µM | KM12 > 100 µM | LOX IMVI > 100 µM | MCF7 > 100 µM | NCI-H23 > 100 µM | NCI-H460 > 100 µM | OVCAR-5 > 100 µM | OVCAR-8 > 100 µM | SK-OV-3 > 100 µM | SN12C > 100 µM | SR > 100 µM

CCOc1ccc(C2c3[nH]c4ccccc4c3CCN2C(=O)c2cccs2)cc1 (stereo not drawn)
inactive: BT-549 61.9 µM | CCRF-CEM 3.48 µM | COLO 205 8.47 µM | HCC 2998 2.08 µM | HL-60 9.04 µM | HOP-62 4.67 µM | HT-29 5.98 µM | K562 2.34 µM | KM12 9.08 µM | LOX IMVI 6.52 µM | MCF7 7.6 µM | NCI-H23 56.4 µM | NCI-H460 2.2 µM | OVCAR-3 9.89 µM | OVCAR-5 > 100 µM | OVCAR-8 36.4 µM | SK-OV-3 > 100 µM | SN12C > 100 µM | SR 2.62 µM

CC(C)(C)c1ccc(-c2nnc(SCc3ccc(Cl)cc3)n2-c2cccc(C(F)(F)F)c2)cc1
inactive: BT-549 > 93.3 µM | CCRF-CEM 7.87 µM | COLO 205 8.83 µM | HCC 2998 11.2 µM | HOP-62 34.3 µM | HT-29 5.47 µM | K562 4.25 µM | KM12 8.2 µM | LOX IMVI 31.3 µM | MCF7 5.65 µM | NCI-H23 10.9 µM | NCI-H460 7.23 µM | OVCAR-3 1.87 µM | OVCAR-5 32.8 µM | OVCAR-8 15.6 µM | SK-OV-3 8.32 µM | SN12C 4.24 µM | SR 5.82 µM
active: HL-60 0.0867 µM

CC1(C)CN=C(Nc2ccc(F)c(Cl)c2)S1
inactive: BT-549 > 100 µM | CCRF-CEM > 100 µM | COLO 205 > 100 µM | HCC 2998 > 100 µM | HL-60 > 100 µM | HOP-62 > 100 µM | HT-29 > 100 µM | K562 > 100 µM | KM12 > 100 µM | LOX IMVI > 100 µM | MCF7 > 100 µM | NCI-H23 > 100 µM | OVCAR-3 > 100 µM | OVCAR-5 > 100 µM | OVCAR-8 > 100 µM | SK-OV-3 > 100 µM | SN12C > 100 µM | SR > 100 µM

C[C@H](CCC(=O)NCC(=O)O)[C@H]1CC[C@H]2[C@@H]3[C@H](O)C[C@@H]4C[C@H](O)CC[C@]4(C)[C@H]3CC[C@]12C
inactive: BT-549 > 100 µM | CCRF-CEM > 100 µM | COLO 205 > 100 µM | HCC 2998 > 100 µM | HL-60 > 100 µM | HOP-62 > 100 µM | HT-29 > 100 µM | K562 > 100 µM | KM12 > 100 µM | LOX IMVI > 100 µM | MCF7 > 100 µM | NCI-H23 > 100 µM | NCI-H460 > 100 µM | OVCAR-3 > 100 µM | OVCAR-5 > 100 µM | OVCAR-8 > 100 µM | SK-OV-3 > 100 µM | SN12C > 100 µM | SR > 100 µM

CCOC(=O)C1(C#N)OC(=O)c2cnccc21 (stereo not drawn)
inactive: BT-549 > 100 µM | CCRF-CEM > 100 µM | COLO 205 > 100 µM | HCC 2998 > 100 µM | HL-60 > 100 µM | HT-29 > 100 µM | K562 > 100 µM | KM12 > 100 µM | LOX IMVI > 100 µM | MCF7 > 100 µM | NCI-H23 > 100 µM | NCI-H460 > 100 µM | OVCAR-3 > 100 µM | OVCAR-5 > 100 µM | OVCAR-8 > 100 µM | SK-OV-3 > 100 µM | SN12C > 100 µM | SR > 100 µM

Cc1cn(CCOCCOC(=O)NC(CCCNC(N)=O)C(=O)O)c(=O)[nH]c1=O (stereo not drawn)
inactive: BT-549 > 100 µM | CCRF-CEM > 100 µM | COLO 205 > 100 µM | HCC 2998 > 100 µM | HL-60 > 100 µM | HOP-62 > 100 µM | HT-29 > 100 µM | K562 > 100 µM | KM12 > 100 µM | LOX IMVI > 100 µM | MCF7 > 100 µM | NCI-H23 > 100 µM | NCI-H460 > 100 µM | OVCAR-3 > 100 µM | OVCAR-5 > 100 µM | OVCAR-8 > 100 µM | SK-OV-3 > 100 µM | SN12C > 100 µM | SR > 100 µM

CCOC(=O)c1ccc(Nc2nc3ccc(C(F)(F)F)cc3nc2C(=O)OCC)cc1
inactive: BT-549 > 100 µM | CCRF-CEM > 100 µM | COLO 205 > 100 µM | HCC 2998 > 100 µM | HL-60 > 100 µM | HOP-62 49.2 µM | HT-29 > 100 µM | K562 > 100 µM | KM12 > 100 µM | LOX IMVI > 100 µM | MCF7 > 100 µM | NCI-H23 > 100 µM | NCI-H460 > 100 µM | OVCAR-3 > 100 µM | OVCAR-5 > 100 µM | OVCAR-8 > 100 µM | SK-OV-3 > 100 µM | SN12C > 100 µM | SR > 100 µM

CC(C)=CCC[C@@H](C)C1=C(O)C(=O)C(C)=C(N)C1=O
inactive: BT-549 42.2 µM | CCRF-CEM 6.11 µM | COLO 205 27.9 µM | HCC 2998 59.6 µM | HL-60 3.43 µM | HOP-62 23.2 µM | HT-29 40.8 µM | K562 23.2 µM | KM12 23.3 µM | LOX IMVI 15.7 µM | MCF7 50.8 µM | NCI-H23 27.3 µM | NCI-H460 10.2 µM | OVCAR-3 27.9 µM | OVCAR-5 81.5 µM | OVCAR-8 17.9 µM | SK-OV-3 27.3 µM | SN12C 35.5 µM | SR 16.7 µM

CC(=O)N(CCc1ccccc1)C(C)(C#N)c1ccccc1 (stereo not drawn)
inactive: BT-549 > 100 µM | CCRF-CEM > 100 µM | COLO 205 > 100 µM | HCC 2998 > 100 µM | HL-60 > 100 µM | HOP-62 > 100 µM | HT-29 > 100 µM | K562 > 100 µM | KM12 > 100 µM | LOX IMVI > 100 µM | MCF7 > 100 µM | NCI-H23 > 100 µM | OVCAR-3 > 100 µM | OVCAR-5 > 100 µM | OVCAR-8 > 100 µM | SK-OV-3 > 100 µM | SN12C > 100 µM | SR > 100 µM

C=CC(O)C#Cc1cnc(OC)nc1OC (stereo not drawn)
inactive: BT-549 > 100 µM | CCRF-CEM 17.1 µM | COLO 205 81.5 µM | HCC 2998 > 100 µM | HL-60 17.2 µM | HOP-62 > 100 µM | HT-29 > 100 µM | K562 23.9 µM | KM12 86.7 µM | LOX IMVI > 100 µM | MCF7 14.5 µM | NCI-H23 > 100 µM | NCI-H460 > 100 µM | OVCAR-3 > 100 µM | OVCAR-5 > 100 µM | OVCAR-8 > 100 µM | SN12C > 100 µM | SR > 100 µM

CN(Cc1nc2c(N)nc(N)nc2nc1N)c1ccc(C(=O)NC(CCC(=O)O)C(=O)O)cc1 (stereo not drawn)
active: CCRF-CEM < 0.01 µM | HL-60 < 0.01 µM | HOP-62 0.231 µM | HT-29 < 0.01 µM | LOX IMVI < 0.01 µM | MCF7 0.0596 µM | NCI-H23 0.544 µM | NCI-H460 < 0.0122 µM | OVCAR-8 0.0413 µM | SN12C 0.365 µM | SR < 0.01 µM
inactive: BT-549 > 100 µM | COLO 205 > 100 µM | HCC 2998 3.65 µM | KM12 > 100 µM | OVCAR-3 > 100 µM | OVCAR-5 17.7 µM | SK-OV-3 > 100 µM

O=C1CCCC2=C1CC1=C(CCCC1=O)N2c1ccc([N+](=O)[O-])cc1
inactive: BT-549 > 100 µM | CCRF-CEM > 100 µM | HCC 2998 > 100 µM | HL-60 > 100 µM | HT-29 > 100 µM | K562 > 100 µM | KM12 > 100 µM | LOX IMVI > 100 µM | MCF7 > 100 µM | NCI-H23 > 100 µM | NCI-H460 > 100 µM | OVCAR-3 > 100 µM | OVCAR-5 > 100 µM | OVCAR-8 > 100 µM | SK-OV-3 > 100 µM | SN12C > 100 µM | SR > 100 µM

COC(=O)/C=C\S/C(=C(/c1ccccc1)n1ccc(C(=O)OC)n1)c1ccccc1
inactive: BT-549 > 100 µM | COLO 205 > 100 µM | HCC 2998 41 µM | HL-60 > 100 µM | HOP-62 15.8 µM | HT-29 > 100 µM | K562 > 100 µM | KM12 > 100 µM | LOX IMVI > 100 µM | MCF7 8.77 µM | NCI-H23 22.8 µM | NCI-H460 66.4 µM | OVCAR-5 > 100 µM | OVCAR-8 35.9 µM | SK-OV-3 19.9 µM | SN12C 37.5 µM | SR > 100 µM

Cc1sccc1C(=S)Nc1ccc(Cl)c(/C=N/OC(C)(C)C)c1
inactive: BT-549 17.7 µM | CCRF-CEM 21.3 µM | COLO 205 13.9 µM | HCC 2998 16.4 µM | HL-60 16.9 µM | HOP-62 16 µM | HT-29 14.3 µM | KM12 13.2 µM | LOX IMVI 26.6 µM | MCF7 11.8 µM | NCI-H23 15.4 µM | OVCAR-3 13.9 µM | OVCAR-5 19.3 µM | OVCAR-8 17.1 µM | SK-OV-3 21.9 µM | SN12C 12.5 µM | SR 17.6 µM
